What was measured:
HMTK1 [1] = test: Phosphorylation of peptide substrates by purified HMTK1 (phosphocellulose paper assay); type: biochemical, Monosiga brevicollis; settings: 6 minutes at 30°C; for HMTK1 activity toward peptide (comparison of c-Src and Monosiga-derived peptides): 750 µM peptide, 400 nM HMTK1, pH 7.4, phosphocellulose paper assay, Fig. 2A
Protocol: (§1) HMTK1 was expressed in Spodoptera frugiperda (Sf9) insect cells using the Bac-to-Bac system (Invitrogen). Sf9 cells (800 ml) were infected with HMTK1 baculovirus and harvested after three days. Cells were lysed in a French pressure cell, and His-tagged HMTK1 was purified using nickel-nitrilotriacetic acid resin (Qiagen), as described previously. Peak fractions were pooled and concentrated in an Amicon Ultrafiltration device (molecular weight cutoff: 30,000 daltons). The purified protein was stored in 40% glycerol at −20°C. The isolated PTB domain of HMTK1 was produced as a fusion with glutathione S-transferase (GST). E. coli cells (1 liter) expressing the GST fusion protein were lysed in a French pressure cell, and the GST-PTB protein was purified by chromatography on a glutathione-agarose column (Molecular Probes).
Kinase assays were performed by two methods. Initial activity measurements were performed by the phosphocellulose paper binding assay. Reaction mixtures contained 20 mM Tris-HCl (pH 7.4), 10 mM MgCl2, 0.2 mM ATP, [γ-^32P]-ATP (30–50 cpm/pmol), and varying amounts of HMTK1 and peptide substrates. All peptide substrates were purified by high pressure liquid chromatography and characterized by mass spectrometry prior to use. […] Initial rate kinetic measurements on the PTB ligand-containing substrate ([…]pYATLG) and on the Phe-containing PTB control ([…]) were carried out using a continuous spectrophotometric assay. Reactions were performed at 30°C in a final volume of 50 µl. The reactions contained 100 mM Tris pH 7.4, 10 mM MgCl2, 2 mM ATP, 1.5 mM phosphoenolpyruvate, 90 units/ml of pyruvate kinase, 109 units/ml of lactate dehydrogenase, and 1.2 mg/ml of NADH. For determination of Km values, the enzyme concentrations were 0.3–0.5 µM and the peptide concentrations ranged from 0–700 µM. Kinetic constants were determined by nonlinear fitting to the [substrate] vs. velocity curves using GraphPad Prism 4.
Figure 1 Monosiga brevicollis HMTK1 kinase. (A) Domain arrangement of HMTK1. (B) Amino acid sequence of the PTB-kinase HMTK1 construct used in this study. The HMD motif in the catalytic loop is underlined. (C) Tyrosine kinase activity of HMTK1. […] Reactions proceeded for 6 minutes at 30°C, and enzyme activity was measured using the phosphocellulose paper assay.
Figure 2 Additional HMTK1 peptide phosphorylation assays. Reactions proceeded for 6 minutes at 30°C, and enzyme activity was measured using the phosphocellulose paper assay. […] (B) Phosphorylation of SH2-binding substrates containing various spacer lengths between the pY residue and the phosphorylatable tyrosine. The peptides are shown schematically, with the phosphorylation site in blue, the SH2-binding ligand (pYEEI) in red, and the number of intervening amino acids in a box. The sequences of the peptides are: […]pYEEIG (spacer = 11), […]pYEEIG (spacer = 7), and […]pYEEIG (spacer = 3); SH2 control substrate, […] (spacer = 11); substrate peptide, […]. Reactions contained 70 µM peptides. Error bars show standard deviation.

MbSrc4 = settings: ref [13], [14]; cited from earlier work
MbSrc1 = settings: ref [13], [14]; cited from earlier work
HMTK1 [2] = test: Co-expression of HMTK1 with mammalian receptor tyrosine kinases: binding or phosphorylation; type: cell-based, Monosiga brevicollis; settings: data not shown
[3] = biological target: PTB ligand-containing substrate (…pYATLG)
Sequence of PTB ligand-containing substrate (…pYATLG) (peptide, as listed by the source): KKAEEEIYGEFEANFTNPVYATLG

[4] = biological target: Phe-containing PTB control substrate (…)
[5] = biological target: SH2 binding substrate, spacer = 11 (…pYEEIG)
Sequence of SH2 binding substrate, spacer = 11 (…pYEEIG) (peptide, as listed by the source): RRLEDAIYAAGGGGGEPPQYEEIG

HMTK1 [6] = test: Steady-state kinetics, continuous spectrophotometric assay; type: biochemical, Monosiga brevicollis; settings: HMTK1 0.3–0.5 µM; peptide 0–700 µM; 100 mM Tris pH 7.4, 10 mM MgCl2, 2 mM ATP; 30°C; nonlinear fitting
Protocol: Kinase assays were performed by two methods. Initial activity measurements were performed by the phosphocellulose paper binding assay. Reaction mixtures contained 20 mM Tris-HCl (pH 7.4), 10 mM MgCl2, 0.2 mM ATP, [γ-^32P]-ATP (30–50 cpm/pmol), and varying amounts of HMTK1 and peptide substrates. All peptide substrates were purified by high pressure liquid chromatography and characterized by mass spectrometry prior to use. The following substrates were used: c-Src peptide, […]; MbSTAT peptide, […]; RTKB2 peptide 1, […]; RTKB2 peptide 2, […]; SH2 binding substrates (varying linker lengths), […]pYEEIG, […]pYEEIG, and […]pYEEIG; SH2 control substrate, […]. Initial rate kinetic measurements on the PTB ligand-containing substrate ([…]pYATLG) and on the Phe-containing PTB control ([…]) were carried out using a continuous spectrophotometric assay. Reactions were performed at 30°C in a final volume of 50 µl. The reactions contained 100 mM Tris pH 7.4, 10 mM MgCl2, 2 mM ATP, 1.5 mM phosphoenolpyruvate, 90 units/ml of pyruvate kinase, 109 units/ml of lactate dehydrogenase, and 1.2 mg/ml of NADH. For determination of Km values, the enzyme concentrations were 0.3–0.5 µM and the peptide concentrations ranged from 0–700 µM. Kinetic constants were determined by nonlinear fitting to the [substrate] vs. velocity curves using GraphPad Prism 4.

HMTK1 [7] = test: Binding of purified HMTK1 to immobilized PTB ligand peptides; design: species or system Monosiga brevicollis; settings: 6.6 µg HMTK1; peptide on Affi-Gel resin; 1 hour at 4°C; anti-His6 Western; Fig. 5A
Protocol: The PTB ligand-containing peptide, Phe-containing PTB control, and pYEEI peptide (EPQpYEEIG) were linked to Affi-Gel 15 resin (Bio-Rad) following the manufacturer's protocols. Purified HMTK1 or the isolated PTB domain were incubated for 1 hour at 4°C with the immobilized peptides. After binding, the beads were washed 4 times with 1 ml of binding buffer (50 mM Tris-HCl pH 7.5, 5 mM EDTA, 100 mM NaCl, 0.1% Triton X-100, 1 mM DTT, 0.5 mM Na3VO4). Bound proteins were eluted with SDS-PAGE loading buffer, separated by 10% SDS-PAGE, and visualized either by Coomassie blue staining or by Western blotting.
Figure 5 Substrate targeting by PTB ligand. (A) Purified HMTK1 (6.6 µg) was incubated with PTB ligand-containing substrate ([…]pYATLG), PTB control substrate ([…]), pYEEI peptide, or control resin in final volumes of 60 µl. After washing, bound proteins were eluted with SDS-PAGE sample buffer and analyzed by Western blotting with anti-His6-tag antibody. (B) The kinase activity of HMTK1 (300 nM) toward the PTB ligand-containing substrate or PTB control substrate (shown schematically) was determined using the phosphocellulose paper assay. The reaction contained 20 mM Tris-HCl (pH 7.4), 10 mM MgCl2, 0.2 mM ATP, 30 µM peptide, and [γ-^32P]-ATP. […] Incorporation of ^32P into the peptides was determined by scintillation counting.

[8] = test system: FLAG-tagged wild-type HMTK1; test: Pulldown of FLAG-tagged wild-type HMTK1 from SYF cell lysates with immobilized peptides; type: binding, Monosiga brevicollis; settings: immobilized peptide; anti-FLAG Western; Fig. 3C
Protocol: For expression in insect cells, HMTK1 DNA (encoding residues 341–761) was cloned into the EcoRI site of pFastbac-Hta (Invitrogen). FLAG-tagged HMTK1 was expressed in mammalian cells by subcloning into the BglII and BamHI sites of p3XFLAG-CMV (Sigma). The ΔPTB version of this construct was prepared by PCR amplification and subsequent recloning into the BamHI and EcoRI sites of p3XFLAG-CMV. Site-directed mutagenesis of FLAG-HMTK1 was carried out using the QuikChange kit (Stratagene). To express the isolated third PTB domain (residues 341–474) in bacterial cells, this PCR fragment was cloned into the EcoRI site of plasmid pGEX-4T-1 (GE Healthcare). All constructs were confirmed by DNA sequencing.
The PTB ligand-containing peptide, Phe-containing PTB control, and pYEEI peptide (EPQpYEEIG) were linked to Affi-Gel 15 resin (Bio-Rad) following the manufacturer's protocols. Purified HMTK1 or the isolated PTB domain were incubated for 1 hour at 4°C with the immobilized peptides. […]
Figure 3 Binding reactions with pYEEI-containing peptide. […] Bound proteins were eluted with SDS-PAGE sample buffer and analyzed by gel electrophoresis with Coomassie blue staining. […] After washing, bound proteins were eluted with SDS-PAGE sample buffer and analyzed by Western blotting with anti-GST antibody. […] After washing, bound proteins were analyzed by anti-FLAG Western blotting. […]

HMTK1 [9] = test: Phosphorylation of SH2-binding substrates with varying spacer lengths by HMTK1 (phosphocellulose paper assay); type: biochemical, Monosiga brevicollis; settings: 70 µM peptides; spacer of 11 residues; 6 minutes at 30°C; Fig. 2B
Protocol: as §1
Kinase assays were performed by two methods. Initial activity measurements were performed by the phosphocellulose paper binding assay. […] Kinetic constants were determined by nonlinear fitting to the [substrate] vs. velocity curves using GraphPad Prism 4.
Figure 2 Additional HMTK1 peptide phosphorylation assays. Reactions proceeded for 6 minutes at 30°C, and enzyme activity was measured using the phosphocellulose paper assay. […]

Q: What does the source list for “AEEEIYGEFEAKKKG [c-Src peptide, acidophilic Src peptide, reference compound]”?
A: HMTK1 activity toward peptide (comparison of c-Src and Monosiga-derived peptides) (HMTK1 [1]): roughly equivalent activity; phosphorylation of peptide by HMTK1 (HMTK1 [1]; 32P-labeled ATP, 500 µM peptide, 20 mM Tris-HCl pH 7.4, 10 mM MgCl2, 0.2 mM ATP, Fig. 1C): phosphorylated this peptide efficiently

Q: Which “MbSrc4 activity compared with the c-Src peptide” value (MbSrc4) does the source give for AEEVYEAIADKKK [RTKB2 peptide 2] here?
A: substantially higher activities

Q: What about the “HMTK1 activity toward peptide (comparison of c-Src and Monosiga-derived peptides)” value (“HMTK1 activity toward peptide” for short) (HMTK1 [1]) of the same substance?
A: highest activity

Q: And the “MbSrc1 activity compared with the c-Src peptide” value (MbSrc1)?
A: substantially higher activities

Q: With “ErbB2: mammalian receptor tyrosine kinase” as the substance, how does the “binding or phosphorylation by co-expressed HMTK1” value (HMTK1 [2]) read?
A: failed to bind or phosphorylate

Q: Which Km of peptide phosphorylation by HMTK1 (continuous spectrophotometric assay, 30°C) [3] does the source give for “His-tagged HMTK1 PTB-kinase construct (residues 341-761) (enzyme)” here?
A: 33 µM

Q: And the Km of peptide phosphorylation by HMTK1 (continuous spectrophotometric assay, 30°C) [4]?
A: 450 µM

Q: What about the other [5] of the same substance?
A: 5 fold

Q: Which “binding or phosphorylation by co-expressed HMTK1” value (HMTK1 [2]) does the source give for “IGF1R: mammalian receptor tyrosine kinase” here?
A: failed to bind or phosphorylate

Q: Which Km (HMTK1 [6]) does the source give for “KKAEEEIYGEFEANFTNPVFATLG [Phe peptide, control peptide in which the pTyr residue was replaced with Phe]” here?
A: 450 µM

Q: And the “binding to purified HMTK1” value (HMTK1 [7])?
A: undetectable

Q: For “KKKASGYVMADIA [MbSTAT peptide, from a putative M. brevicollis STAT]”, which “HMTK1 activity toward peptide” value (HMTK1 [1]) is on record?
A: no significant activity

Q: With “LRRApSLG [phospho-Kemptide, immobilized phosphoserine-containing peptide]” as the substance, how does the “binding to wild-type HMTK1 (SYF lysate)” value [8] read?
A: failed to bind

Q: What does the source list for “RRLEDAIYAAGGGGGEPPQpYEEIG [SH2-binding substrate]”?
A: phosphorylation relative to control sequence lacking phosphotyrosine (HMTK1 [9]): 5 fold; phosphorylation relative to shortened peptide containing only the substrate motif (HMTK1 [9]): 5 fold

Q: With SEEVYGAVVDKKK [RTKB2 peptide 1] as the substance, how does the “MbSrc4 activity compared with the c-Src peptide” value (MbSrc4) read?
A: substantially higher activities

Q: And the “HMTK1 activity toward peptide” value (HMTK1 [1])?
A: roughly equivalent activity

Q: And the “MbSrc1 activity compared with the c-Src peptide” value (MbSrc1)?
A: substantially higher activities
